We go through seven molecules from patent US20230143604A1, “QW DOSING OF GIP RECEPTOR AGONIST PEPTIDE COMPOUNDS AND USES THEREOF” (TAKEDA PHARMACEUTICAL COMPANY LIMITED, priority 2020, published 2023).

The series is described as follows: Solubility in phosphate buffer pH 7.4. The procedure, abridged:
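3 mg of peptide treated with 100 μL portions of 200 mM phosphate buffer pH 7.4, sonicating/vortexing up to 1 min, with further buffer added until fully dissolved. Solubility then quantified by HPLC.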

[1] abbreviates: pH 7.4, aqueous buffer, pH 7.4 Phosphate Buffer - Solubility, 200 mM Phosphate buffer pH 7.4.
The mark [2] stands for this setting: pH 7.4, solubility in phosphate buffer at pH 7.4, 200 mM phosphate buffer pH 7.4.

Starred links: 1 amine or outer side, 2 acyl side, 3 side chain; linkers in the order of their positions; H or OH if unused. Non-standard residues stand in square brackets, D forms with d. Residues, ends and D or L forms follow the SMILES beside them. Groups on a side chain read outwards from the residue. *: point of attachment. C18 diacid = O=C(O)CCCCCCCCCCCCCCCCC(=O)*; C17 diacid = O=C(O)CCCCCCCCCCCCCCCC(=O)*; γGlu = O=C(O)[C@H](CCC(=O)[*:2])N[*:1]; NMeY = CN[C@@H](Cc1ccc(O)cc1)C(=O)O; AEEA = NCCOCCOCC(=O)O; Aib = CC(C)(N)C(=O)O

On to `CC[C@H](C)[C@H](NC(=O)[C@H](Cc1ccccc1)NC(=O)[C@@H](NC(=O)CNC(=O)[C@H](CCC(=O)O)NC(=O)C(C)(C)NC(=O)[C@H](Cc1ccc(O)cc1)NC)[C@@H](C)O)C(=O)N[C@@H](CO)C(=O)N[C@@H](CC(=O)O)C(=O)N[C@@H](Cc1ccc(O)cc1)C(=O)N[C@@H](CO)C(=O)N[C@H](C(=O)NC(C)(C)C(=O)N[C@@H](CC(C)C)C(=O)N[C@@H](CC(=O)O)C(=O)N[C@@H](CCCNC(=N)N)C(=O)NC(C)(C)C(=O)N[C@@H](C)C(=O)N[C@@H](CCC(N)=O)C(=O)NC(C)(C)C(=O)N[C@@H](CCCCNC(=O)COCCOCCNC(=O)COCCOCCNC(=O)CC[C@H](NC(=O)CC[C@H](NC(=O)CCCCCCCCCCCCCCCC(=O)O)C(=O)O)C(=O)O)C(=O)N[C@@H](Cc1ccccc1)C(=O)N[C@H](C(=O)N[C@@H](CC(N)=O)C(=O)N[C@@H](Cc1c[nH]c2ccccc12)C(=O)N[C@@H](CC(C)C)C(=O)N[C@@H](CC(C)C)C(=O)N[C@@H](C)C(=O)N[C@@H](CCC(N)=O)C(=O)N[C@@H](CO)C(=O)N1CCC[C@H]1C(=O)N[C@@H](CO)C(=O)N[C@@H](CO)C(=O)NCC(=O)N[C@@H](C)C(=O)N1CCC[C@H]1C(=O)N1CCC[C@H]1C(=O)N1CCC[C@H]1C(=O)N[C@@H](CO)C(N)=O)C(C)C)[C@@H](C)CC` [Compound 94] (H-[NMeY][Aib]EGTFISDYSI[Aib]LDR[Aib]AQ[Aib]K([AEEA-AEEA-γGlu-γGlu-C17 diacid])FVNWLLAQSPSSGAPPPS-NH2), for which the solubility was at least 60 mg/mL under setting [1] and at least 15 mg/mL under setting [2]. Under setting [1], `CC[C@H](C)[C@H](NC(=O)[C@H](CO)NC(=O)[C@H](Cc1ccc(O)cc1)NC(=O)[C@H](CC(=O)O)NC(=O)[C@H](CO)NC(=O)[C@@H](NC(=O)[C@H](Cc1ccccc1)NC(=O)[C@@H](NC(=O)CNC(=O)[C@H](CCC(=O)O)NC(=O)C(C)(C)NC(=O)[C@H](Cc1ccc(O)cc1)NC)[C@@H](C)O)[C@@H](C)CC)C(=O)N[C@@H](C)C(=O)N[C@@H](CCCCNC(=O)CNC(=O)CNC(=O)CNC(=O)CNC(=O)CNC(=O)CCCCCCCCCCCCCCCCC(=O)O)C(=O)N[C@@H](CC(=O)O)C(=O)N[C@@H](CCCNC(=N)N)C(=O)NC(C)(C)C(=O)N[C@@H](C)C(=O)N[C@@H](CCC(N)=O)C(=O)NC(C)(C)C(=O)N[C@@H](CC(=O)O)C(=O)N[C@@H](Cc1ccccc1)C(=O)N[C@H](C(=O)N[C@@H](CC(N)=O)C(=O)N[C@@H](Cc1c[nH]c2ccccc12)C(=O)N[C@@H](CC(C)C)C(=O)N[C@@H](CC(C)C)C(=O)N[C@@H](C)C(=O)N[C@@H](CCC(N)=O)C(=O)N[C@@H](CCCNC(=N)N)C(=O)N1CCC[C@H]1C(=O)N[C@@H](CO)C(=O)N[C@@H](CO)C(=O)NCC(=O)N[C@@H](C)C(=O)N1CCC[C@H]1C(=O)N1CCC[C@H]1C(=O)N1CCC[C@H]1C(=O)N[C@@H](CO)C(N)=O)C(C)C` [Compound 274] came in with a solubility of at least 10 mg/mL. On the same count and under the same terms, next, `CC[C@H](C)[C@H](NC(=O)[C@H](CO)NC(=O)[C@H](Cc1ccc(O)cc1)NC(=O)[C@H](CC(=O)O)NC(=O)[C@H](CO)NC(=O)[C@@H](NC(=O)[C@H](Cc1ccccc1)NC(=O)[C@@H](NC(=O)CNC(=O)[C@H](CCC(=O)O)NC(=O)C(C)(C)NC(=O)[C@H](Cc1ccc(O)cc1)NC)[C@@H](C)O)[C@@H](C)CC)C(=O)N[C@@H](C)C(=O)N[C@@H](CC(C)C)C(=O)N[C@@H](CC(=O)O)C(=O)N[C@@H](CCCNC(=N)N)C(=O)N[C@@H](CCCCNC(=O)COCCOCCNC(=O)COCCOCCNC(=O)CC[C@H](NC(=O)CCCCCCCCCCCCCCCC(=O)O)C(=O)O)C(=O)N[C@@H](C)C(=O)N[C@@H](CCC(N)=O)C(=O)NC(C)(C)C(=O)N[C@@H](CC(N)=O)C(=O)N[C@@H](Cc1ccccc1)C(=O)N[C@H](C(=O)N[C@@H](CC(N)=O)C(=O)N[C@@H](Cc1c[nH]c2ccccc12)C(=O)N[C@@H](CC(C)C)C(=O)N[C@@H](CC(C)C)C(=O)N[C@@H](C)C(=O)N[C@@H](CCC(N)=O)C(=O)N[C@@H](CCCNC(=N)N)C(=O)N1CCC[C@H]1C(=O)N[C@@H](CO)C(=O)N[C@@H](CO)C(=O)NCC(=O)N[C@@H](C)C(=O)N1CCC[C@H]1C(=O)N1CCC[C@H]1C(=O)N1CCC[C@H]1C(=O)N[C@@H](CO)C(N)=O)C(C)C` [Compound 266] (H-[NMeY][Aib]EGTFISDYSIALDRK([AEEA-AEEA-γGlu-C17 diacid])AQ[Aib]NFVNWLLAQRPSSGAPPPS-NH2): below 6 mg/mL. `CC[C@H](C)[C@H](NC(=O)[C@H](Cc1ccccc1)NC(=O)[C@@H](NC(=O)CNC(=O)[C@H](CCC(=O)O)NC(=O)C(C)(C)NC(=O)[C@H](Cc1ccc(O)cc1)NC)[C@@H](C)O)C(=O)N[C@@H](CO)C(=O)N[C@@H](CC(=O)O)C(=O)N[C@@H](Cc1ccc(O)cc1)C(=O)N[C@@H](CO)C(=O)N[C@H](C(=O)NC(C)(C)C(=O)N[C@@H](CC(C)C)C(=O)N[C@@H](CC(=O)O)C(=O)N[C@@H](CCCNC(=N)N)C(=O)NC(C)(C)C(=O)N[C@@H](C)C(=O)N[C@@H](CCC(N)=O)C(=O)NC(C)(C)C(=O)N[C@@H](CC(=O)O)C(=O)N[C@@H](Cc1ccccc1)C(=O)N[C@H](C(=O)N[C@@H](CC(N)=O)C(=O)N[C@@H](Cc1c[nH]c2ccccc12)C(=O)N[C@@H](CC(C)C)C(=O)N[C@@H](CC(C)C)C(=O)N[C@@H](C)C(=O)N[C@@H](CCCCNC(=O)COCCOCCNC(=O)COCCOCCNC(=O)CC[C@H](NC(=O)CC[C@H](NC(=O)CCCCCCCCCCCCCCCCC(=O)O)C(=O)O)C(=O)O)C(=O)N[C@@H](CCCNC(=N)N)C(=O)NCC(=O)O)C(C)C)[C@@H](C)CC` [Compound 62] (H-[NMeY][Aib]EGTFISDYSI[Aib]LDR[Aib]AQ[Aib]DFVNWLLAK([AEEA-AEEA-γGlu-γGlu-C18 diacid])RG-OH) showed a solubility (pH 7.4) of at least 15 mg/mL and a solubility (pH 7.4, aqueous buffer) of at least 30 mg/mL. Turning to `CC[C@H](C)[C@H](NC(=O)[C@H](CO)NC(=O)[C@H](Cc1ccc(O)cc1)NC(=O)[C@H](CC(=O)O)NC(=O)[C@H](CO)NC(=O)[C@@H](NC(=O)[C@H](Cc1ccccc1)NC(=O)[C@@H](NC(=O)CNC(=O)[C@H](CCC(=O)O)NC(=O)C(C)(C)NC(=O)[C@@H](N)Cc1ccc(O)cc1)[C@@H](C)O)[C@@H](C)CC)C(=O)N[C@@H](C)C(=O)N[C@@H](CCCCNC(=O)CNC(=O)CNC(=O)CNC(=O)CNC(=O)CNC(=O)CCCCCCCCCCCCCCCCC(=O)O)C(=O)N[C@@H](CC(=O)O)C(=O)N[C@@H](CCCNC(=N)N)C(=O)N[C@@H](C)C(=O)N[C@@H](C)C(=O)N[C@@H](CCC(N)=O)C(=O)NC(C)(C)C(=O)N[C@@H](CC(=O)O)C(=O)N[C@@H](Cc1ccccc1)C(=O)N[C@H](C(=O)N[C@@H](CCC(=O)O)C(=O)N[C@@H](Cc1c[nH]c2ccccc12)C(=O)N[C@@H](CC(C)C)C(=O)N[C@@H](CC(C)C)C(=O)N[C@@H](C)C(=O)N[C@@H](CCC(N)=O)C(=O)N[C@@H](CCCNC(=N)N)C(=O)NCC(=O)O)C(C)C` [Compound 291], where the note is “pH 7.4, aqueous buffer”, the solubility is below 6 mg/mL. In the case of `CC[C@H](C)[C@H](NC(=O)[C@H](Cc1ccccc1)NC(=O)[C@@H](NC(=O)CNC(=O)[C@H](CCC(=O)O)NC(=O)C(C)(C)NC(=O)[C@H](Cc1ccc(O)cc1)NC)[C@@H](C)O)C(=O)N[C@@H](CO)C(=O)N[C@@H](CC(=O)O)C(=O)N[C@@H](Cc1ccc(O)cc1)C(=O)N[C@@H](CO)C(=O)N[C@H](C(=O)NC(C)(C)C(=O)N[C@@H](CC(C)C)C(=O)N[C@@H](CC(=O)O)C(=O)N[C@@H](CCCNC(=N)N)C(=O)NC(C)(C)C(=O)N[C@@H](C)C(=O)N[C@@H](CCC(N)=O)C(=O)NC(C)(C)C(=O)N[C@@H](CCCCNC(=O)COCCOCCNC(=O)CC[C@H](NC(=O)COCCOCCNC(=O)CC[C@H](NC(=O)CCCCCCCCCCCCCCCCC(=O)O)C(=O)O)C(=O)O)C(=O)N[C@@H](Cc1ccccc1)C(=O)N[C@H](C(=O)N[C@@H](CC(N)=O)C(=O)N[C@@H](Cc1c[nH]c2ccccc12)C(=O)N[C@@H](CC(C)C)C(=O)N[C@@H](CC(C)C)C(=O)N[C@@H](C)C(=O)N[C@@H](CCC(N)=O)C(=O)N[C@@H](CO)C(=O)N1CCC[C@H]1C(=O)N[C@@H](CO)C(=O)N[C@@H](CO)C(=O)NCC(=O)N[C@@H](C)C(=O)N1CCC[C@H]1C(=O)N1CCC[C@H]1C(=O)N1CCC[C@H]1C(=O)N[C@@H](CO)C(N)=O)C(C)C)[C@@H](C)CC` [Compound 92] (H-[NMeY][Aib]EGTFISDYSI[Aib]LDR[Aib]AQ[Aib]K([AEEA-γGlu-AEEA-γGlu-C18 diacid])FVNWLLAQSPSSGAPPPS-NH2), the solubility is, setting by setting: under setting [1], at least 60 mg/mL; under setting [2], at least 15 mg/mL. On the same counts, the results for `CC[C@H](C)[C@H](NC(=O)[C@H](CO)NC(=O)[C@H](Cc1ccc(O)cc1)NC(=O)[C@H](CC(=O)O)NC(=O)[C@H](CO)NC(=O)[C@@H](NC(=O)[C@H](Cc1ccccc1)NC(=O)[C@@H](NC(=O)CNC(=O)[C@H](CCC(=O)O)NC(=O)C(C)(C)NC(=O)[C@H](Cc1ccc(O)cc1)NC)[C@@H](C)O)[C@@H](C)CC)C(=O)N[C@@H](C)C(=O)N[C@@H](CC(C)C)C(=O)N[C@@H](CC(=O)O)C(=O)N[C@@H](CCCNC(=N)N)C(=O)NC(C)(C)C(=O)N[C@@H](CCCCNC(=O)COCCOCCNC(=O)COCCOCCNC(=O)CC[C@H](NC(=O)CCCCCCCCCCCCCCCC(=O)O)C(=O)O)C(=O)N[C@@H](CCC(N)=O)C(=O)NC(C)(C)C(=O)N[C@@H](CC(=O)O)C(=O)N[C@@H](Cc1ccccc1)C(=O)N[C@H](C(=O)N[C@@H](CC(N)=O)C(=O)N[C@@H](Cc1c[nH]c2ccccc12)C(=O)N[C@@H](CC(C)C)C(=O)N[C@@H](CC(C)C)C(=O)N[C@@H](C)C(=O)N[C@@H](CCC(N)=O)C(=O)N[C@@H](CCCNC(=N)N)C(=O)N1CCC[C@H]1C(=O)N[C@@H](CO)C(=O)N[C@@H](CO)C(=O)NCC(=O)N[C@@H](C)C(=O)N1CCC[C@H]1C(=O)N1CCC[C@H]1C(=O)N1CCC[C@H]1C(=O)N[C@@H](CO)C(N)=O)C(C)C` [Compound 25] (H-[NMeY][Aib]EGTFISDYSIALDR[Aib]K([AEEA-AEEA-γGlu-C17 diacid])Q[Aib]DFVNWLLAQRPSSGAPPPS-NH2) are at least 30 mg/mL and at least 15 mg/mL.
